# Active and inactive are the calls of the source. The rule behind the calls is not given here.
# What was measured:
# MCF7 [1] = test: Resistance factor, ratio of IC50 for human MCF7 cells expressing P-glycoprotein to IC50 for P-glycoprotein deficient wild type human MCF7 cells; format: functional
# MCF7 [2] = test: Cytotoxicity against P-glycoprotein deficient wild type human MCF7 cells after 72 hrs; format: functional, cell-based; conditions: MCF7, 72 h
# MCF7 [3] = test: Cytotoxicity against human MCF7 cells expressing P-glycoprotein after 72 hrs; format: functional, cell-based; conditions: MCF7, 72 h
# HT-29 = test: Cytotoxicity against human HT-29 cells after 72 hrs; format: functional, cell-based; conditions: HT-29, 72 h
# PANC-1 = test: Cytotoxicity against human PANC1 cells expressing mdr1, mrp1, mrp2, lrp genes after 72 hrs; format: functional, cell-based; conditions: PANC-1, 72 h
# [4] = Activity ratio of compound IC50 to paclitaxel IC50 for paclitaxel and cyclosporine-resistant human A2780TC3 cells overexpressing class 3 beta-tubulin; format: functional
# [5] = Cytotoxicity against human A2780/ADR cells after 72 hrs; format: functional, cell-based
# [6] = Cytotoxicity against human paclitaxel and cyclosporine-resistant A2780TC3 cells overexpressing class 3 beta-tubulin after 72 hrs; format: functional, cell-based; conditions: A2780TC3, 72 h
# A2780 [7] = test: Cytotoxicity against human topotecan-resistant A2780 cells after 72 hrs; format: functional, cell-based; conditions: A2780, 72 h
# A2780 [8] = test: Resistance factor, ratio of IC50 for paclitaxel and cyclosporine-resistant human A2780TC3 cells overexpressing class 3 beta-tubulin to IC50 for wild type human A2780 cells; format: functional
# A2780 [9] = test: Cytotoxicity against human cisplatin-resistant A2780 cells after 72 hrs; format: functional, cell-based; conditions: A2780, 72 h
# A2780 [10] = test: Cytotoxicity against human wild type A2780 cells after 72 hrs; format: functional, cell-based; conditions: A2780, 72 h
# [11] = Cytotoxicity against human paclitaxel and cyclosporine-resistant A2780TC1 cells overexpressing class 3 beta-tubulin after 72 hrs; format: functional, cell-based; conditions: A2780TC1, 72 h
# [12] = Cytotoxicity against P-glycoprotein deficient wild type human LCC-6 cells after 72 hrs; format: functional, cell-based; conditions: LCC-6, 72 h
# [13] = Cytotoxicity against multidrug-resistant human NCI/ADR cells after 72 hrs; format: functional, cell-based; conditions: NCI/ADR-RES
# [14] = Cytotoxicity against human LCC-6 cells expressing P-glycoprotein after 72 hrs; format: functional, cell-based; conditions: LCC-6, 72 h
# MCF7 [15] = test: Resistance factor, ratio of IC50 for P-glycoprotein deficient wild type human MCF7 cells to IC50 for multidrug-resistant human NCI/ADR cells; format: functional
# [16] = Resistance factor, ratio of IC50 for human LCC-6 cells expressing P-glycoprotein to IC50 for P-glycoprotein deficient wild type human LCC-6 cells; format: functional; design: reference not given here
# [17] = Induction of tubulin polymerization at 10 uM in absence of GTP
# [18] = Induction of tubulin polymerization at 10 uM in presence of Ca2+
Structure (SMILES),IC50 (MCF7 [2]),IC50 (HT-29),IC50 (A2780 [10]),IC50 [12],Ratio (MCF7 [15]),Ratio [16],further results
CCC(=O)O[C@H]1C(=O)[C@@]2(C)[C@H]([C@H](OC(=O)c3ccccc3)[C@]3(O)C[C@H](OC(=O)[C@H](O)[C@H](C=C(F)F)NC(=O)OC(C)(C)C)C(C)=C1C3(C)C)[C@]1(OC(C)=O)CO[C@@H]1C[C@@H]2O,0.12 nM,0.34 nM,,,,,Ratio (MCF7 [1]): 10; IC50 (MCF7 [3]): 1.2 nM; IC50 (PANC-1): 0.65 nM
CC(=O)O[C@@]1([C@@H]2/C(C)=C(/O)C(=O)C3=C(C)[C@@H](OC(=O)[C@H](O)[C@H](CC(C)C)NC(=O)OC(C)(C)C)C[C@@](O)([C@H]2OC(=O)c2cccc(F)c2)C3(C)C)CO[C@H]1CCO,,,11.1 nM,,,,Ratio IC50 [4]: 39; IC50 [5]: 3730 nM; IC50 [6]: 460 nM; IC50 (A2780 [7]): 12.8 nM; Ratio IC50 (A2780 [8]): 41; IC50 (A2780 [9]): 11.8 nM; IC50 [11]: 1500 nM
CC(=O)O[C@@]1([C@@H]2/C(C)=C(/O)C(=O)C3=C(C)[C@@H](OC(=O)[C@H](O)[C@H](C=C(C)C)NC(=O)OC(C)(C)C)C[C@@](O)([C@H]2OC(=O)c2cccc(F)c2)C3(C)C)CO[C@@H]1CCO,,,6.1 nM,,,,IC50 [5]: 2220 nM; IC50 [6]: 745 nM; IC50 (A2780 [7]): 6.9 nM; IC50 (A2780 [9]): 4.9 nM; IC50 [11]: 4450 nM
CC(=O)O[C@H]1C(=O)[C@@]2(C)[C@H]([C@H](OC(=O)c3ccccc3)[C@]3(O)[C@H]4OC/C=C\OCc5ccccc5C(=O)N[C@@H](c5ccccc5)[C@@H](O)C(=O)O[C@@H]4C(C)=C1C3(C)C)[C@]1(OC(C)=O)CO[C@@H]1C[C@@H]2O,196 nM,62 nM,198 nM,348 nM,,,IC50 [13]: 1140 nM; IC50 [14]: 1920 nM
CC(=O)O[C@H]1C(=O)[C@@]2(C)[C@H]([C@H](OC(=O)c3ccccc3)[C@]3(O)[C@H]4OC/C=C/Cc5ccccc5C(=O)N[C@@H](C=C(C)C)[C@@H](O)C(=O)O[C@@H]4C(C)=C1C3(C)C)[C@]1(OC(C)=O)CO[C@@H]1C[C@@H]2O,398 nM,,,130 nM,,,IC50 [13]: 1000 nM; IC50 [14]: 618 nM
CC(=O)O[C@H]1C(=O)[C@@]2(C)[C@H]([C@H](OC(=O)c3ccccc3)[C@]3(O)[C@H]4OC/C=C/OCc5ccccc5C(=O)N[C@@H](c5ccccc5)[C@@H](O)C(=O)O[C@@H]4C(C)=C1C3(C)C)[C@]1(OC(C)=O)CO[C@@H]1C[C@@H]2O,1650 nM,523 nM,1480 nM,2070 nM,,,IC50 [13]: 10000 nM; IC50 [14]: 2280 nM
C=CCC[C@H](NC(=O)OC(C)(C)C)[C@@H](O)C(=O)O[C@H]1C[C@@]2(O)[C@@H](OC(=O)c3cccc(OC)c3)[C@@H]3[C@]4(OC(C)=O)CO[C@@H]4C[C@H](O)[C@@]3(C)C(=O)[C@H](OC(=O)CC)C(=C1C)C2(C)C,,,,0.9 nM,3.9,6,
CCC(=O)O[C@H]1C(=O)[C@@]2(C)[C@H]([C@H](OC(=O)c3cccc(OC)c3)[C@]3(O)C[C@H](OC(=O)[C@H](O)[C@H](C=C(C)C)NC(=O)C4CCC4)C(C)=C1C3(C)C)[C@]1(OC(C)=O)CO[C@@H]1C[C@@H]2O,,,,1.6 nM,11,9.4,
CC(=O)O[C@@]12CO[C@@H]1C[C@H](O)[C@@]1(C)C(=O)[C@H](OC(=O)N(C)C)C3=C(C)[C@@H](OC(=O)[C@H](O)[C@H](C=C(F)F)NC(=O)OC(C)(C)C)C[C@@](O)([C@@H](OC(=O)c4ccccc4)[C@H]21)C3(C)C,0.13 nM,0.46 nM,,,,,Ratio (MCF7 [1]): 33; IC50 (MCF7 [3]): 4.3 nM; IC50 (PANC-1): 1.58 nM
CCC(=O)O[C@H]1C(=O)[C@@]2(C)[C@H]([C@H](OC(=O)c3ccccc3)[C@]3(O)C[C@H](OC(=O)[C@H](O)[C@H](CC(C)C)NC(=O)OC4CCCC4)C(C)=C1C3(C)C)[C@]1(OC(C)=O)CO[C@@H]1C[C@@H]2O,,,,2.6 nM,6.8,5.4,
CC(=O)O[C@H]1C(=O)[C@@]2(C)[C@H]([C@H](OC(=O)c3ccccc3)[C@]3(O)C[C@H](OC(=O)[C@H](O)[C@H](C=C(F)F)NC(=O)OC(C)(C)C)C(C)=C1C3(C)C)[C@]1(OC(C)=O)CO[C@@H]1C[C@@H]2O,0.099 nM,0.41 nM,,,,,Ratio (MCF7 [1]): 9.6; IC50 (MCF7 [3]): 0.95 nM; IC50 (PANC-1): 1.19 nM
COc1ccc(CC(=O)O[C@H]2C(=O)[C@@]3(C)[C@H]([C@H](OC(=O)c4cccc(OC)c4)[C@]4(O)C[C@H](OC(=O)[C@H](O)[C@H](C=C(C)C)NC(=O)OC(C)(C)C)C(C)=C2C4(C)C)[C@]2(OC(C)=O)CO[C@@H]2C[C@@H]3O)cc1,,,,0.4 nM,3,1,
CC(=O)O[C@H]1C(=O)[C@@]2(C)[C@H]([C@H](OC(=O)c3ccccc3)[C@]3(O)[C@H]4OC/C=C/Cc5ccccc5C(=O)N[C@@H](c5ccccc5)[C@@H](O)C(=O)O[C@@H]4C(C)=C1C3(C)C)[C@]1(OC(C)=O)CO[C@@H]1C[C@@H]2O,12.3 nM,29.2 nM,114 nM,12.2 nM,,,IC50 [13]: 592 nM; IC50 [14]: 300 nM
CCC(=O)O[C@H]1C(=O)[C@@]2(C)[C@H]([C@H](OC(=O)c3cccc(OC)c3)[C@]3(O)C[C@H](OC(=O)[C@H](O)[C@H](CC(C)C)NC(=O)OC4CCCC4)C(C)=C1C3(C)C)[C@]1(OC(C)=O)CO[C@@H]1C[C@@H]2O,,,,0.76 nM,6.9,3.4,
CCC(=O)O[C@H]1C(=O)[C@@]2(C)[C@H]([C@H](OC(=O)c3ccccc3)[C@]3(O)C[C@H](OC(=O)[C@H](O)[C@H](C=C(C)C)NC(=O)C4CCCCC4)C(C)=C1C3(C)C)[C@]1(OC(C)=O)CO[C@@H]1C[C@@H]2O,,,,1.3 nM,18,10,
CCC(=O)O[C@H]1C(=O)[C@@]2(C)[C@H]([C@H](OC(=O)c3ccccc3)[C@]3(O)C[C@H](OC(=O)[C@H](O)[C@H](C=C(C)C)NC(=O)C4CCC4)C(C)=C1C3(C)C)[C@]1(OC(C)=O)CO[C@@H]1C[C@@H]2O,,,,1.3 nM,34,26,
CCC(=O)O[C@H]1C(=O)[C@@]2(C)[C@H]([C@H](OC(=O)c3ccccc3)[C@]3(O)C[C@H](OC(=O)[C@H](O)[C@H](CC(C)C)NC(=O)C4CCCC4)C(C)=C1C3(C)C)[C@]1(OC(C)=O)CO[C@@H]1C[C@@H]2O,,,,6.3 nM,12,10,
CC(=O)O[C@@]1(C2/C(C)=C(/O)C(=O)C3=C(C)[C@@H](OC(=O)[C@H](O)[C@H](CC(C)C)NC(=O)OC(C)(C)C)C[C@@](O)([C@H]2OC(=O)c2ccccc2)C3(C)C)CO[C@@H]1CCO (some centres not stated),,,17.4 nM,,,,Ratio IC50 [4]: 8; IC50 [5]: 2620 nM; IC50 [6]: 2240 nM; IC50 (A2780 [7]): 27.5 nM; Ratio IC50 (A2780 [8]): 129; IC50 (A2780 [9]): 16.8 nM; IC50 [11]: 2060 nM
COc1cccc(C(=O)O[C@H]2[C@@H]3[C@]4(OC(C)=O)CO[C@@H]4C[C@H](O)[C@@]3(C)C(=O)[C@H](OC(=O)OCc3ccccc3)C3=C(C)[C@@H](OC(=O)[C@H](O)[C@H](C=C(C)C)NC(=O)OC(C)(C)C)C[C@]2(O)C3(C)C)c1,,,,1.2 nM,7.5,1.5,
CC(=O)O[C@H]1C(=O)[C@@]2(C)[C@H]([C@H](OC(=O)c3ccccc3)[C@]3(O)[C@H]4OCC/C=C/c5ccccc5C(=O)N[C@@H](c5ccccc5)[C@@H](O)C(=O)O[C@@H]4C(C)=C1C3(C)C)[C@]1(OC(C)=O)CO[C@@H]1C[C@@H]2O,3.49 nM,17 nM,31 nM,2.09 nM,,,IC50 [13]: 183 nM; inhibition [17]: Active; IC50 [14]: 129 nM; inhibition [18]: Active
CCC(=O)O[C@H]1C(=O)[C@@]2(C)[C@H]([C@H](OC(=O)c3cccc(OC)c3)[C@]3(O)C[C@H](OC(=O)[C@H](O)[C@H](C=C(C)C)NC(=O)C4CC4)C(C)=C1C3(C)C)[C@]1(OC(C)=O)CO[C@@H]1C[C@@H]2O,,,,1.1 nM,15.6,16,
CC(=O)O[C@@]12CO[C@@H]1C[C@H](O)[C@@]1(C)C(=O)[C@H](OC(=O)C3CC3)C3=C(C)[C@@H](OC(=O)[C@H](O)[C@H](C=C(F)F)NC(=O)OC(C)(C)C)C[C@@](O)([C@@H](OC(=O)c4ccccc4)[C@H]21)C3(C)C,0.12 nM,0.85 nM,,,,,Ratio (MCF7 [1]): 50; IC50 (MCF7 [3]): 6 nM; IC50 (PANC-1): 5.85 nM
